Numbers after ± are expanded uncertainties.
Assay: xn = mol fraction of the nth substance listed
Conditions: Liquid; for mass density: Bellows volumetry; for Critical density: bellows voluometer

Structure (SMILES): N [ammonia] + O
- mass density (436.56 K, 14191 kPa, x1 = 0.9098): 263.5 ± 0.5 kg/m3
- mass density (436.56 K, 14208 kPa, x1 = 0.9098): 264.8 ± 0.5 kg/m3
- mass density (436.56 K, 14217 kPa, x1 = 0.9098): 265.4 ± 0.5 kg/m3
- mass density (436.56 K, 14225 kPa, x1 = 0.9098): 265.9 ± 0.5 kg/m3
- mass density (478.58 K, 17311 kPa, x1 = 0.7757): 284.3 ± 0.5 kg/m3
- mass density (478.58 K, 17320 kPa, x1 = 0.7757): 284.7 ± 0.5 kg/m3
- mass density (478.58 K, 17329 kPa, x1 = 0.7757): 285.1 ± 0.5 kg/m3
- mass density (478.58 K, 17347 kPa, x1 = 0.7757): 285.8 ± 0.4 kg/m3
- mass density (503.06 K, 18697 kPa, x1 = 0.6808): 294.8 ± 0.5 kg/m3
- mass density (503.06 K, 18706 kPa, x1 = 0.6808): 295.2 ± 0.5 kg/m3
- mass density (503.06 K, 18715 kPa, x1 = 0.6808): 295.6 ± 0.5 kg/m3
- mass density (503.06 K, 18724 kPa, x1 = 0.6808): 296 ± 0.5 kg/m3
- mass density (503.06 K, 18733 kPa, x1 = 0.6808): 296.3 ± 0.5 kg/m3
- mass density (503.06 K, 18743 kPa, x1 = 0.6808): 296.6 ± 0.5 kg/m3
- mass density (503.06 K, 18751 kPa, x1 = 0.6808): 297 ± 0.5 kg/m3
- Critical density (x1 = 0.6808): 294.6 ± 1 kg/m3
- Critical density (x1 = 0.7757): 284 ± 1.2 kg/m3
- Critical density (x1 = 0.9098): 262.9 ± 1.8 kg/m3
